In BindingDB's records for doi:10.1016/j.bmcl.2008.03.027 (Scripps Florida, 2008):

Target: Steroidogenic factor 1 (Homo sapiens, UniProt Q13285)
Assay: Transactivation Cell-Based Assay
Method: The assay was to monitor the SF-1 activation state via co-transfection of CHO-K1 cells with a plasmid encoding a Gal4-SF-1 chimerical transcription factor, pGal4DBD-SF-1-LBD, and a second plasmid driving luciferase expression under control of 5 multimerized Gal4 binding sites. The assay began by dispensing transfected cell suspension to each well (4,000 cells / well) of a white solid-bottom 1536-well plate. One hour after seeding, cells were treated with test compounds or DMSO alone (high control). The -NR cells (not co-transfected with nuclear receptor) were treated with DMSO (low control). After incubation, the luciferase assay was performed, and light emission was measured for 30 seconds with the ViewLux reader (PerkinElmer, Turku, Finland). Activity of each compound was calculated using the equation: Percent inhibition of compound=100 x (1-(test well-low control)/ (high control-low control)) EC50/IC50 is the concentration of test compound to exert 50% inhibition.

Steroidogenic factor 1, sequence (Q13285 whole entry): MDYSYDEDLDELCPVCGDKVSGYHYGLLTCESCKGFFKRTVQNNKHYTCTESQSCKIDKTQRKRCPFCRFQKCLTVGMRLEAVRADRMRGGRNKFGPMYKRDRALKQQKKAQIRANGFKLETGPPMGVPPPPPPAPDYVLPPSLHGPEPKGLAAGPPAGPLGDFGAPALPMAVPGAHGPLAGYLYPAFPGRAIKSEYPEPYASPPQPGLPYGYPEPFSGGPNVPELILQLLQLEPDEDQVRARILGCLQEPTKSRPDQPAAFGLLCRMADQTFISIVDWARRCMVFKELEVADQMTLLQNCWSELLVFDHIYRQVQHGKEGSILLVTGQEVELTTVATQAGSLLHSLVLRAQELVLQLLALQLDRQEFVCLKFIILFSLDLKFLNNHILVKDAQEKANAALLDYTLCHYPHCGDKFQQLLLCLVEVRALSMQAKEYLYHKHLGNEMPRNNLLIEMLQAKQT

| SMILES | EC50 [nM] |
| --- | --- |
| CCOC(=O)C(C)Oc1cccc2c(=O)n(CC(=O)Nc3ccc4c(c3)OCCO4)ccc12 (stereo unspecified) | 760 |
| CCCCOc1cccc2c(=O)n(CC(=O)Nc3ccc4c(c3)OCCO4)ccc12 [2-(5-butoxy-1-oxo-1,2-dihydroisoquinolin-2-yl)-N-(2,3-dihydro-1,4-benzodioxin-6-yl)acetamide] | 13700 |
| CCC(C)Oc1cccc2c(=O)n(CC(=O)Nc3ccc4c(c3)OCCO4)ccc12 (stereo unspecified) [2-[5-(butan-2-yloxy)-1-oxo-1,2-dihydroisoquinolin-2-yl]-N-(2,3-dihydro-1,4-benzodioxin-6-yl)acetamide] | 7860 |
| CCCCC(C)Oc1cccc2c(=O)n(CC(=O)Nc3ccc4c(c3)OCCO4)ccc12 (stereo unspecified) [N-(2,3-dihydro-1,4-benzodioxin-6-yl)-2-[5-(hexan-2-yloxy)-1-oxo-1,2-dihydroisoquinolin-2-yl]acetamide] | 880 |
| CCOC(=O)C(C)Oc1cccc2c(=O)n(CCC(=O)Nc3ccc4c(c3)OCCO4)ccc12 (stereo unspecified) [ethyl 2-({2-[2-(2,3-dihydro-1,4-benzodioxin-6-ylcarbamoyl)ethyl]-1-oxo-1,2-dihydroisoquinolin-5-yl}oxy)propanoate] | 8460 |
| CCOC(=O)C(C)(C)Oc1cccc2c(=O)n(CC(=O)Nc3ccc4c(c3)OCCO4)ccc12 [ethyl 2-({2-[(2,3-dihydro-1,4-benzodioxin-6-ylcarbamoyl)methyl]-1-oxo-1,2-dihydroisoquinolin-5-yl}oxy)-2-methylpropanoate] | 590 |
| CCOC(=O)C(C)Oc1cccc2c(=O)n(CC(=O)NCc3ccccc3)ccc12 (stereo unspecified) [ethyl 2-({2-[(benzylcarbamoyl)methyl]-1-oxo-1,2-dihydroisoquinolin-5-yl}oxy)propanoate] | 1060 |
| CCCCNC(=O)Cn1ccc2c(OC(C)C(=O)OCC)cccc2c1=O (stereo unspecified) [ethyl 2-({2-[(butylcarbamoyl)methyl]-1-oxo-1,2-dihydroisoquinolin-5-yl}oxy)propanoate] | 9710 |
| CCOC(=O)C(C)Oc1cccc2c(=O)n(CC(=O)NC3CCCCC3)ccc12 (stereo unspecified) [ethyl 2-({2-[(cyclohexylcarbamoyl)methyl]-1-oxo-1,2-dihydroisoquinolin-5-yl}oxy)propanoate] | 1770 |
| CCOC(=O)C(C)Oc1cccc2c(=O)n(CC(=O)NCCc3ccccc3)ccc12 (stereo unspecified) [ethyl 2-[(1-oxo-2-{[(2-phenylethyl)carbamoyl]methyl}-1,2-dihydroisoquinolin-5-yl)oxy]propanoate] | 360 |
| CCOC(=O)C(C)Oc1cccc2c(=O)n(CC(=O)N(C)c3ccc4c(c3)OCCO4)ccc12 (stereo unspecified) [ethyl 2-[(2-{[2,3-dihydro-1,4-benzodioxin-6-yl(methyl)carbamoyl]methyl}-1-oxo-1,2-dihydroisoquinolin-5-yl)oxy]propanoate] | 3570 |
| CCOC(=O)C(C)Oc1cccc2c(=O)n(CC(=O)NCc3ccc4c(c3)OCO4)ccc12 (stereo unspecified) [ethyl 2-[(2-{[(2H-1,3-benzodioxol-5-ylmethyl)carbamoyl]methyl}-1-oxo-1,2-dihydroisoquinolin-5-yl)oxy]propanoate] | 260 |
| CCCCc1ccc(NC(=O)Cn2ccc3c(OC(C)C(=O)OCC)cccc3c2=O)cc1 (stereo unspecified) [ethyl 2-[(2-{[(4-butylphenyl)carbamoyl]methyl}-1-oxo-1,2-dihydroisoquinolin-5-yl)oxy]propanoate] | 360 |
| CCOC(=O)C(C)Oc1cccc2c(=O)n(CC(=O)Nc3ccc(OCC)cc3)ccc12 (stereo unspecified) [ethyl 2-[(2-{[(4-ethoxyphenyl)carbamoyl]methyl}-1-oxo-1,2-dihydroisoquinolin-5-yl)oxy]propanoate] | 190 |
| CCOC(=O)C(C)Oc1cccc2c(=O)n(CC(=O)Nc3ccc(CC)cc3)ccc12 (stereo unspecified) [ethyl 2-[(2-{[(4-ethylphenyl)carbamoyl]methyl}-1-oxo-1,2-dihydroisoquinolin-5-yl)oxy]propanoate] | 110 |
| CCOC(=O)C(C)Oc1cccc2c(=O)n(CC(=O)Nc3ccc(OC)cc3)ccc12 (stereo unspecified) [ethyl 2-[(2-{[(4-methoxyphenyl)carbamoyl]methyl}-1-oxo-1,2-dihydroisoquinolin-5-yl)oxy]propanoate] | 200 |
| CCOC(=O)C(C)Oc1cccc2c(=O)n(CC(=O)Nc3ccc(C)cc3)ccc12 (stereo unspecified) [ethyl 2-[(2-{[(4-methylphenyl)carbamoyl]methyl}-1-oxo-1,2-dihydroisoquinolin-5-yl)oxy]propanoate] | 340 |
| CCOC(=O)C(C)Oc1cccc2c(=O)n(CC(=O)Nc3ccc([N+](=O)[O-])cc3)ccc12 (stereo unspecified) [ethyl 2-[(2-{[(4-nitrophenyl)carbamoyl]methyl}-1-oxo-1,2-dihydroisoquinolin-5-yl)oxy]propanoate] | 530 |
| CCOC(=O)C(C)Oc1cccc2c(=O)n(CC(=O)NCc3ccco3)ccc12 (stereo unspecified) [ethyl 2-[(2-{[(furan-2-ylmethyl)carbamoyl]methyl}-1-oxo-1,2-dihydroisoquinolin-5-yl)oxy]propanoate] | 4710 |
| CCOC(=O)C(C)Oc1cccc2c(=O)n(CC(=O)Nc3ccc(OC(F)(F)F)cc3)ccc12 (stereo unspecified) [ethyl 2-{[1-oxo-2-({[4-(trifluoromethoxy)phenyl]carbamoyl}methyl)-1,2-dihydroisoquinolin-5-yl]oxy}propanoate] | 200 |
| CCOC(=O)C(C)Oc1cccc2c(=O)n(CC(=O)NCc3ccc(F)cc3)ccc12 (stereo unspecified) [ethyl 2-{[2-({[(4-fluorophenyl)methyl]carbamoyl}methyl)-1-oxo-1,2-dihydroisoquinolin-5-yl]oxy}propanoate] | 680 |
